#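 Each compound was tested at five concentrations against cells in 96-well plates for 48 hours. At the GI50, growth is halved. Definition used: TGI = concentration required for complete inhibition of growth.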
# What was measured:
# Assay in all cases: inhibition of tumour cell growth, NCI panel, 48 h
# NCI/ADR-RES ovarian = system: NCI/ADR-RES ovarian
# PC-3 prostate = system: PC-3 prostate
# SR leukemia = system: SR leukemia
# LOX IMVI melanoma = system: LOX IMVI melanoma
# HCT-116 colon = system: HCT-116 colon
# MDA-MB-435 = system: MDA-MB-435
# IGROV1 ovarian = system: IGROV1 ovarian
# RXF 393 renal = system: RXF 393 renal
# MOLT-4 leukemia = system: MOLT-4 leukemia
# UACC-257 melanoma = system: UACC-257 melanoma
# SK-MEL-28 melanoma = system: SK-MEL-28 melanoma
# A549 NSCLC = system: A549 NSCLC
# NCI-H226 lung = system: NCI-H226 lung
# NCI-H522 lung = system: NCI-H522 lung
# OVCAR-5 ovarian = system: OVCAR-5 ovarian
# NCI-H23 lung = system: NCI-H23 lung
# M14 melanoma = system: M14 melanoma
# SNB-75 CNS = system: SNB-75 CNS
# U251 CNS = system: U251 CNS
# HOP-92 NSCLC = system: HOP-92 NSCLC
# BT-549 breast = system: BT-549 breast
# OVCAR-3 ovarian = system: OVCAR-3 ovarian
# SF-268 CNS = system: SF-268 CNS
# UACC-62 melanoma = system: UACC-62 melanoma
# HOP-62 NSCLC = system: HOP-62 NSCLC
# SN12C renal = system: SN12C renal
# SF-539 CNS = system: SF-539 CNS
# HCT-15 colon = system: HCT-15 colon
# COLO 205 colon = system: COLO 205 colon
# HT29 colon = system: HT29 colon
# KM12 colon = system: KM12 colon
# MCF7 breast = system: MCF7 breast
# HS 578T breast = system: HS 578T breast
# ACHN renal = system: ACHN renal
# SNB-19 CNS = system: SNB-19 CNS
# SK-MEL-5 melanoma = system: SK-MEL-5 melanoma
# K-562 leukemia = system: K-562 leukemia
# EKVX NSCLC = system: EKVX NSCLC
# DU-145 prostate = system: DU-145 prostate
# SK-MEL-2 melanoma = system: SK-MEL-2 melanoma
# SF-295 CNS = system: SF-295 CNS
# 786-0 renal = system: 786-0 renal
# HCC-2998 colon = system: HCC-2998 colon
# OVCAR-8 ovarian = system: OVCAR-8 ovarian
# CCRF-CEM leukemia = system: CCRF-CEM leukemia
# SW-620 colon = system: SW-620 colon
# HL-60(TB) leukemia = system: HL-60(TB) leukemia
# SK-OV-3 ovarian = system: SK-OV-3 ovarian
# OVCAR-4 ovarian = system: OVCAR-4 ovarian
# MDA-MB-231 breast = system: MDA-MB-231 breast
# NCI-H460 lung = system: NCI-H460 lung
# TK-10 renal = system: TK-10 renal
# RPMI-8226 leukemia = system: RPMI-8226 leukemia
# UO-31 renal = system: UO-31 renal
# CAKI-1 renal = system: CAKI-1 renal
# T-47D breast = system: T-47D breast
# MALME-3M melanoma = system: MALME-3M melanoma
# A498 renal = system: A498 renal
compound,measurement,setting,value
Cc1cc(Cl)cc2c(N=Nc3ccc(S(N)(=O)=O)cc3)c(O)[nH]c12,GI50,NCI/ADR-RES ovarian,> 25 µM
same,TGI,NCI/ADR-RES ovarian,> 25 µM
same,GI50,PC-3 prostate,> 25 µM
same,TGI,PC-3 prostate,> 25 µM
same,GI50,SR leukemia,> 25 µM
same,TGI,SR leukemia,> 25 µM
same,GI50,LOX IMVI melanoma,> 25 µM
same,TGI,LOX IMVI melanoma,> 25 µM
same,GI50,HCT-116 colon,> 25 µM
same,TGI,HCT-116 colon,> 25 µM
same,GI50,MDA-MB-435,> 25 µM
same,TGI,MDA-MB-435,> 25 µM
same,GI50,IGROV1 ovarian,> 25 µM
same,TGI,IGROV1 ovarian,> 25 µM
same,GI50,RXF 393 renal,> 14.5 µM
same,TGI,RXF 393 renal,> 25 µM
same,GI50,MOLT-4 leukemia,> 25 µM
same,TGI,MOLT-4 leukemia,> 25 µM
same,GI50,UACC-257 melanoma,> 25 µM
same,TGI,UACC-257 melanoma,> 25 µM
same,GI50,SK-MEL-28 melanoma,> 25 µM
same,TGI,SK-MEL-28 melanoma,> 25 µM
same,GI50,A549 NSCLC,> 25 µM
same,TGI,A549 NSCLC,> 25 µM
same,GI50,NCI-H226 lung,> 25 µM
same,TGI,NCI-H226 lung,> 25 µM
same,GI50,NCI-H522 lung,> 25 µM
same,TGI,NCI-H522 lung,> 25 µM
same,GI50,OVCAR-5 ovarian,> 25 µM
same,TGI,OVCAR-5 ovarian,> 25 µM
same,GI50,NCI-H23 lung,> 25 µM
same,TGI,NCI-H23 lung,> 25 µM
same,GI50,M14 melanoma,> 25 µM
same,TGI,M14 melanoma,> 25 µM
same,GI50,SNB-75 CNS,> 15.6 µM
same,TGI,SNB-75 CNS,> 25 µM
same,GI50,U251 CNS,> 25 µM
same,TGI,U251 CNS,> 25 µM
same,GI50,HOP-92 NSCLC,> 25 µM
same,TGI,HOP-92 NSCLC,> 25 µM
same,GI50,BT-549 breast,> 25 µM
same,TGI,BT-549 breast,> 25 µM
same,GI50,OVCAR-3 ovarian,> 25 µM
same,TGI,OVCAR-3 ovarian,> 25 µM
same,GI50,SF-268 CNS,> 25 µM
same,TGI,SF-268 CNS,> 25 µM
same,GI50,UACC-62 melanoma,> 25 µM
same,TGI,UACC-62 melanoma,> 25 µM
same,GI50,HOP-62 NSCLC,> 25 µM
same,TGI,HOP-62 NSCLC,> 25 µM
same,GI50,SN12C renal,> 25 µM
same,TGI,SN12C renal,> 25 µM
same,GI50,SF-539 CNS,> 25 µM
same,TGI,SF-539 CNS,> 25 µM
same,GI50,HCT-15 colon,> 25 µM
same,TGI,HCT-15 colon,> 25 µM
same,GI50,COLO 205 colon,> 25 µM
same,TGI,COLO 205 colon,> 25 µM
same,GI50,HT29 colon,> 25 µM
same,TGI,HT29 colon,> 25 µM
same,GI50,KM12 colon,> 25 µM
same,TGI,KM12 colon,> 25 µM
same,GI50,MCF7 breast,> 25 µM
same,TGI,MCF7 breast,> 25 µM
same,GI50,HS 578T breast,> 25 µM
same,TGI,HS 578T breast,> 25 µM
same,GI50,ACHN renal,> 25 µM
same,TGI,ACHN renal,> 25 µM
same,GI50,SNB-19 CNS,> 25 µM
same,TGI,SNB-19 CNS,> 25 µM
same,GI50,SK-MEL-5 melanoma,> 25 µM
same,TGI,SK-MEL-5 melanoma,> 25 µM
same,GI50,K-562 leukemia,> 25 µM
same,TGI,K-562 leukemia,> 25 µM
same,GI50,EKVX NSCLC,> 25 µM
same,TGI,EKVX NSCLC,> 25 µM
same,GI50,DU-145 prostate,> 25 µM
same,TGI,DU-145 prostate,> 25 µM
same,GI50,SK-MEL-2 melanoma,> 25 µM
same,TGI,SK-MEL-2 melanoma,> 25 µM
same,GI50,SF-295 CNS,> 25 µM
same,TGI,SF-295 CNS,> 25 µM
same,GI50,786-0 renal,> 25 µM
same,TGI,786-0 renal,> 25 µM
same,GI50,HCC-2998 colon,> 25 µM
same,TGI,HCC-2998 colon,> 25 µM
same,GI50,OVCAR-8 ovarian,> 25 µM
same,TGI,OVCAR-8 ovarian,> 25 µM
same,GI50,CCRF-CEM leukemia,> 25 µM
same,TGI,CCRF-CEM leukemia,> 25 µM
same,GI50,SW-620 colon,> 25 µM
same,TGI,SW-620 colon,> 25 µM
same,GI50,HL-60(TB) leukemia,> 25 µM
same,TGI,HL-60(TB) leukemia,> 25 µM
same,GI50,SK-OV-3 ovarian,> 25 µM
same,TGI,SK-OV-3 ovarian,> 25 µM
same,GI50,OVCAR-4 ovarian,> 25 µM
same,TGI,OVCAR-4 ovarian,> 25 µM
same,GI50,MDA-MB-231 breast,> 25 µM
same,TGI,MDA-MB-231 breast,> 25 µM
same,GI50,NCI-H460 lung,> 25 µM
same,TGI,NCI-H460 lung,> 25 µM
same,GI50,TK-10 renal,> 25 µM
same,TGI,TK-10 renal,> 25 µM
same,GI50,RPMI-8226 leukemia,> 25 µM
same,TGI,RPMI-8226 leukemia,> 25 µM
same,GI50,UO-31 renal,> 25 µM
same,TGI,UO-31 renal,> 25 µM
same,GI50,CAKI-1 renal,> 25 µM
same,TGI,CAKI-1 renal,> 25 µM
same,GI50,T-47D breast,> 25 µM
same,TGI,T-47D breast,> 25 µM
same,GI50,MALME-3M melanoma,> 25 µM
same,TGI,MALME-3M melanoma,> 25 µM
same,GI50,A498 renal,> 25 µM
same,TGI,A498 renal,> 25 µM
